The values below come from patent publication US9839642B2, “Beta-tetrazolyl-propionic acids as metallo-beta-lactamase inhibitors” (priority 2014, dated 2017).

Structures are written as SMILES.

For the first test, the target named is NDM-1 (Klebsiella pneumoniae, UniProt C7C422). The experiment in a line: Enzyme activity: determination of IC50, fluorescence assay with CCF2-FA substrate. It is filed as biochemical. The conditions noted are these: enzyme 1 pM, CCF2-FA 1.25 μM, 2 hours at 25° C.; read-out: NDM1 IC50. In outline: (§1)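 Enzyme (1 pM NDM-1, 2 pM IMP-1, 30 pM VIM-1) incubated with inhibitor (20 to 0.00063 μM) and 1.25 μM CCF2-FA in 100 mM KH2PO4 pH 7, 0.005% Tween-20, 10 μM ZnSO4, 2 h at 25 °C. Fluorescence read at 460 nm (ex 405 nm); IC50 by 4-parameter fit.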
Sequence of NDM-1 (C7C422 29-270, looked up, species assumed): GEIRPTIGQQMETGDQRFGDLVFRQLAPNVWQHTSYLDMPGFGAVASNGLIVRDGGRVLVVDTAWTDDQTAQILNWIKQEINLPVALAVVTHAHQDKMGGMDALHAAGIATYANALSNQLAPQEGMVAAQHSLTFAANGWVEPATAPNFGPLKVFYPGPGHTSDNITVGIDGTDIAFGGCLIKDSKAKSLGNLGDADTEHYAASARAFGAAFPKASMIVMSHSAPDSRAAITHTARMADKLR
Regarding `O=C(O)[C@@H](C1CCOCC1)[C@H](Cc1ccccc1)c1nnn[nH]1` [Example 12, (2S,3S)-4-phenyl-2-(tetrahydro-2H-pyran-4-yl)-3-(1H-tetrazol-5-yl)butanoic acid], the IC50 is 99 nM.
As to `O=C(O)[C@@H](CC1CC1)[C@H](Cc1ccccc1)c1nnn[nH]1` [Example 13, (2S,3S)-2-(cyclopropylmethyl)-4-phenyl-3-(1H-tetrazol-5-yl)butanoic acid], the IC50 was determined as 128 nM.
Consider `CC(C)=CCC[C@@H](C(=O)O)[C@H](Cc1ccccc1)c1nnn[nH]1` [Example 14, (2R)-6-methyl-2-[(1S)-2-phenyl-1-(1H-tetrazol-5-yl)ethyl]hept-5-enoic acid], for which the IC50 amounted to 150 nM.
Regarding `O=C(O)[C@@H](C1CCCC1)[C@H](Cc1ccccc1)c1nnn[nH]1` [Example 17, (2S,3S)-2-cyclopentyl-4-phenyl-3-(1H-tetrazol-5-yl)butanoic acid], the IC50 is 16 nM.
On to `CCCC(C)[C@H](C(=O)O)[C@H](Cc1ccccc1)c1nnn[nH]1` (stereo partly drawn) [Example 18, (2S)-3-methyl-2-((S)-2-phenyl-1-(1H-tetrazol-5-yl)ethyl)hexanoic acid], for which the IC50 was found to be 26 nM.
Consider `CCC(C)[C@H](C(=O)O)[C@H](Cc1ccccc1)c1nnn[nH]1` (stereo partly drawn) [Example 19, (2S)-3-methyl-2-((S)-2-phenyl-1-(1H-tetrazol-5-yl)ethyl)pentanoic acid], for which the IC50 came to 31 nM.
The same measure, in the same setting: the same measure for `CC(C)[C@H](C(=O)O)[C@H](Cc1ccccc1)c1nnn[nH]1` [Example 20, (2S,3S)-2-isopropyl-4-phenyl-3-(1H-tetrazol-5-yl)butanoic acid]: 26 nM.
`O=C(O)[C@@H](CCF)[C@H](Cc1ccccc1)c1nnn[nH]1` [Example 21, (2S,3S)-2-(2-fluoroethyl)-4-phenyl-3-(1H-tetrazol-5-yl)butanoic acid]: the 50% inhibitory concentration (IC50) was found to be 190 nM.

A further test deals with VIM-1 (Pseudomonas aeruginosa, UniProt A0A0F7KYQ8). The test is described as above. The conditions noted are these: enzyme 30 pM, CCF2-FA 1.25 μM, 2 hours at 25° C.; read-out: VIM1 IC50. It is filed as biochemical. In outline: as §1
For `O=C(O)[C@@H](C1CCOCC1)[C@H](Cc1ccccc1)c1nnn[nH]1` [Example 12, (2S,3S)-4-phenyl-2-(tetrahydro-2H-pyran-4-yl)-3-(1H-tetrazol-5-yl)butanoic acid], the IC50 stood at 84.7 nM.
For `O=C(O)[C@@H](CC1CC1)[C@H](Cc1ccccc1)c1nnn[nH]1` [Example 13, (2S,3S)-2-(cyclopropylmethyl)-4-phenyl-3-(1H-tetrazol-5-yl)butanoic acid], the IC50 came to 16 nM.
On the same count and under the same terms, the figure for `CC(C)=CCC[C@@H](C(=O)O)[C@H](Cc1ccccc1)c1nnn[nH]1` [Example 14, (2R)-6-methyl-2-[(1S)-2-phenyl-1-(1H-tetrazol-5-yl)ethyl]hept-5-enoic acid] is 37 nM; for `O=C(O)[C@@H](C1CCCC1)[C@H](Cc1ccccc1)c1nnn[nH]1` [Example 17, (2S,3S)-2-cyclopentyl-4-phenyl-3-(1H-tetrazol-5-yl)butanoic acid] it is 3.7 nM.
On the same count and under the same terms, the same measure for `CCCC(C)[C@H](C(=O)O)[C@H](Cc1ccccc1)c1nnn[nH]1` (stereo partly drawn) [Example 18, (2S)-3-methyl-2-((S)-2-phenyl-1-(1H-tetrazol-5-yl)ethyl)hexanoic acid]: 36 nM; for `CCC(C)[C@H](C(=O)O)[C@H](Cc1ccccc1)c1nnn[nH]1` (stereo partly drawn) [Example 19, (2S)-3-methyl-2-((S)-2-phenyl-1-(1H-tetrazol-5-yl)ethyl)pentanoic acid]: 24 nM; for `CC(C)[C@H](C(=O)O)[C@H](Cc1ccccc1)c1nnn[nH]1` [Example 20, (2S,3S)-2-isopropyl-4-phenyl-3-(1H-tetrazol-5-yl)butanoic acid]: 22 nM.
For the molecule `O=C(O)[C@@H](CCF)[C@H](Cc1ccccc1)c1nnn[nH]1` [Example 21, (2S,3S)-2-(2-fluoroethyl)-4-phenyl-3-(1H-tetrazol-5-yl)butanoic acid], the concentration for half-maximal inhibition (IC50) is 15 nM.

The target in a further test is IMP-1 (Serratia marcescens, UniProt P52699). The test is described as above. It is filed as biochemical. The conditions noted are these: enzyme 2 pM, CCF2-FA 1.25 μM, 2 hours at 25° C.; read-out: IMP1 IC50. The procedure, abridged: as §1
Sequence of IMP-1 (P52699 19-246, looked up, species assumed): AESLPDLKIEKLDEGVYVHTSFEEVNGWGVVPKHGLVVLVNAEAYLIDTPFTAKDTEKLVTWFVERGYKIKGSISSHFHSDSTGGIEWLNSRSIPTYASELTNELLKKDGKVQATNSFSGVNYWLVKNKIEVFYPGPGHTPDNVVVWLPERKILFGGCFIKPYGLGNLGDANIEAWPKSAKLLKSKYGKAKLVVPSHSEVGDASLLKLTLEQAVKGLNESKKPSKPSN
Consider `O=C(O)[C@@H](C1CCOCC1)[C@H](Cc1ccccc1)c1nnn[nH]1` [Example 12, (2S,3S)-4-phenyl-2-(tetrahydro-2H-pyran-4-yl)-3-(1H-tetrazol-5-yl)butanoic acid], for which the IC50 stood at 1050 nM.
As to `O=C(O)[C@@H](CC1CC1)[C@H](Cc1ccccc1)c1nnn[nH]1` [Example 13, (2S,3S)-2-(cyclopropylmethyl)-4-phenyl-3-(1H-tetrazol-5-yl)butanoic acid], the IC50 came to 460 nM.
On to `CC(C)=CCC[C@@H](C(=O)O)[C@H](Cc1ccccc1)c1nnn[nH]1` [Example 14, (2R)-6-methyl-2-[(1S)-2-phenyl-1-(1H-tetrazol-5-yl)ethyl]hept-5-enoic acid], for which the IC50 worked out at 1600 nM.
On the same count and under the same terms, the same measure for `O=C(O)[C@@H](C1CCCC1)[C@H](Cc1ccccc1)c1nnn[nH]1` [Example 17, (2S,3S)-2-cyclopentyl-4-phenyl-3-(1H-tetrazol-5-yl)butanoic acid]: 110 nM; for `CCCC(C)[C@H](C(=O)O)[C@H](Cc1ccccc1)c1nnn[nH]1` (stereo partly drawn) [Example 18, (2S)-3-methyl-2-((S)-2-phenyl-1-(1H-tetrazol-5-yl)ethyl)hexanoic acid]: 30 nM.
Still for that read-out and setting: the figure for `CCC(C)[C@H](C(=O)O)[C@H](Cc1ccccc1)c1nnn[nH]1` (stereo partly drawn) [Example 19, (2S)-3-methyl-2-((S)-2-phenyl-1-(1H-tetrazol-5-yl)ethyl)pentanoic acid] is 62 nM; for `CC(C)[C@H](C(=O)O)[C@H](Cc1ccccc1)c1nnn[nH]1` [Example 20, (2S,3S)-2-isopropyl-4-phenyl-3-(1H-tetrazol-5-yl)butanoic acid] it is 390 nM; for `O=C(O)[C@@H](CCF)[C@H](Cc1ccccc1)c1nnn[nH]1` [Example 21, (2S,3S)-2-(2-fluoroethyl)-4-phenyl-3-(1H-tetrazol-5-yl)butanoic acid] it is 2700 nM.

In a further test the test system is Escherichia coli expressing NDM-1 (CLB30005). The test can be described thus: Antibiotic potentiation activity: synergistic concentration (MITC95) with imipenem, growth by OD600. The conditions noted are these: 95% inhibition of bacterial growth, strain CLB30005. It is filed as cell-based. The procedure, abridged:
(§2)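 Strains grown overnight at 35° C, resuspended in saline, diluted 1:100 into 1.1×CAMHB; imipenem at 1 μg/ml or 4 μg/ml with test compound 200 μM to 0.195 μM. Incubated 22 hours to 24 hours at 35° C, OD600 read; MITC95 is lowest compound concentration inhibiting 95% of growth.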
Take `O=C(O)[C@@H](C1CCOCC1)[C@H](Cc1ccccc1)c1nnn[nH]1` [Example 12, (2S,3S)-4-phenyl-2-(tetrahydro-2H-pyran-4-yl)-3-(1H-tetrazol-5-yl)butanoic acid]: the “NDM1 EC30005 MITC95” value was found to be 12.5 µM.
With `O=C(O)[C@@H](CC1CC1)[C@H](Cc1ccccc1)c1nnn[nH]1` [Example 13, (2S,3S)-2-(cyclopropylmethyl)-4-phenyl-3-(1H-tetrazol-5-yl)butanoic acid], the “NDM1 EC30005 MITC95” value was 12.5 µM.
As for `CC(C)=CCC[C@@H](C(=O)O)[C@H](Cc1ccccc1)c1nnn[nH]1` [Example 14, (2R)-6-methyl-2-[(1S)-2-phenyl-1-(1H-tetrazol-5-yl)ethyl]hept-5-enoic acid], the “NDM1 EC30005 MITC95” value was 15.6 µM.
The same measure, in the same setting: the same measure for `O=C(O)[C@@H](C1CCCC1)[C@H](Cc1ccccc1)c1nnn[nH]1` [Example 17, (2S,3S)-2-cyclopentyl-4-phenyl-3-(1H-tetrazol-5-yl)butanoic acid]: 18.8 µM; for `CCCC(C)[C@H](C(=O)O)[C@H](Cc1ccccc1)c1nnn[nH]1` (stereo partly drawn) [Example 18, (2S)-3-methyl-2-((S)-2-phenyl-1-(1H-tetrazol-5-yl)ethyl)hexanoic acid]: 18.8 µM; for `CCC(C)[C@H](C(=O)O)[C@H](Cc1ccccc1)c1nnn[nH]1` (stereo partly drawn) [Example 19, (2S)-3-methyl-2-((S)-2-phenyl-1-(1H-tetrazol-5-yl)ethyl)pentanoic acid]: 9.4 µM.
With `CC(C)[C@H](C(=O)O)[C@H](Cc1ccccc1)c1nnn[nH]1` [Example 20, (2S,3S)-2-isopropyl-4-phenyl-3-(1H-tetrazol-5-yl)butanoic acid], the “NDM1 EC30005 MITC95” value came out at 4.7 µM.
In the case of `O=C(O)[C@@H](CCF)[C@H](Cc1ccccc1)c1nnn[nH]1` [Example 21, (2S,3S)-2-(2-fluoroethyl)-4-phenyl-3-(1H-tetrazol-5-yl)butanoic acid], the “NDM1 EC30005 MITC95” value was found to be 75 µM.

The next test concerns Serratia marcescens expressing IMP-1 (CL5741). The test is described as above. It is filed as cell-based. To be noted: 95% inhibition of bacterial growth, strain CL5741. In outline: as §2
In the case of `O=C(O)[C@@H](C1CCOCC1)[C@H](Cc1ccccc1)c1nnn[nH]1` [Example 12, (2S,3S)-4-phenyl-2-(tetrahydro-2H-pyran-4-yl)-3-(1H-tetrazol-5-yl)butanoic acid], the “IMP1 SM5741 MITC95” value worked out at 200 µM.
On the same count and under the same terms, the same measure for `O=C(O)[C@@H](CC1CC1)[C@H](Cc1ccccc1)c1nnn[nH]1` [Example 13, (2S,3S)-2-(cyclopropylmethyl)-4-phenyl-3-(1H-tetrazol-5-yl)butanoic acid]: 150 µM; for `CC(C)=CCC[C@@H](C(=O)O)[C@H](Cc1ccccc1)c1nnn[nH]1` [Example 14, (2R)-6-methyl-2-[(1S)-2-phenyl-1-(1H-tetrazol-5-yl)ethyl]hept-5-enoic acid]: 200 µM; for `O=C(O)[C@@H](C1CCCC1)[C@H](Cc1ccccc1)c1nnn[nH]1` [Example 17, (2S,3S)-2-cyclopentyl-4-phenyl-3-(1H-tetrazol-5-yl)butanoic acid]: 37.5 µM.
For the molecule `CCCC(C)[C@H](C(=O)O)[C@H](Cc1ccccc1)c1nnn[nH]1` (stereo partly drawn) [Example 18, (2S)-3-methyl-2-((S)-2-phenyl-1-(1H-tetrazol-5-yl)ethyl)hexanoic acid], the “IMP1 SM5741 MITC95” value amounted to 37.5 µM.
Still for that read-out and setting: the same measure for `CCC(C)[C@H](C(=O)O)[C@H](Cc1ccccc1)c1nnn[nH]1` (stereo partly drawn) [Example 19, (2S)-3-methyl-2-((S)-2-phenyl-1-(1H-tetrazol-5-yl)ethyl)pentanoic acid]: 50 µM; for `CC(C)[C@H](C(=O)O)[C@H](Cc1ccccc1)c1nnn[nH]1` [Example 20, (2S,3S)-2-isopropyl-4-phenyl-3-(1H-tetrazol-5-yl)butanoic acid]: 128 µM; for `O=C(O)[C@@H](CCF)[C@H](Cc1ccccc1)c1nnn[nH]1` [Example 21, (2S,3S)-2-(2-fluoroethyl)-4-phenyl-3-(1H-tetrazol-5-yl)butanoic acid]: greater than 200 µM.

The next test concerns Klebsiella pneumoniae expressing VIM-1 (IHMA599644). The description is as above. To be noted: 95% inhibition of bacterial growth, strain IHMA599644. It is filed as cell-based. In outline: as §2
For the molecule `O=C(O)[C@@H](C1CCOCC1)[C@H](Cc1ccccc1)c1nnn[nH]1` [Example 12, (2S,3S)-4-phenyl-2-(tetrahydro-2H-pyran-4-yl)-3-(1H-tetrazol-5-yl)butanoic acid], the “VIM1 KP599644 MITC95” value amounted to 200 µM.
On the same count and under the same terms, the same measure for `O=C(O)[C@@H](CC1CC1)[C@H](Cc1ccccc1)c1nnn[nH]1` [Example 13, (2S,3S)-2-(cyclopropylmethyl)-4-phenyl-3-(1H-tetrazol-5-yl)butanoic acid]: 50 µM.
The same measure, in the same setting: the figure for `CC(C)=CCC[C@@H](C(=O)O)[C@H](Cc1ccccc1)c1nnn[nH]1` [Example 14, (2R)-6-methyl-2-[(1S)-2-phenyl-1-(1H-tetrazol-5-yl)ethyl]hept-5-enoic acid] is 100 µM; for `O=C(O)[C@@H](C1CCCC1)[C@H](Cc1ccccc1)c1nnn[nH]1` [Example 17, (2S,3S)-2-cyclopentyl-4-phenyl-3-(1H-tetrazol-5-yl)butanoic acid] it is 37.5 µM; for `CCCC(C)[C@H](C(=O)O)[C@H](Cc1ccccc1)c1nnn[nH]1` (stereo partly drawn) [Example 18, (2S)-3-methyl-2-((S)-2-phenyl-1-(1H-tetrazol-5-yl)ethyl)hexanoic acid] it is 200 µM.
For `CCC(C)[C@H](C(=O)O)[C@H](Cc1ccccc1)c1nnn[nH]1` (stereo partly drawn) [Example 19, (2S)-3-methyl-2-((S)-2-phenyl-1-(1H-tetrazol-5-yl)ethyl)pentanoic acid], the “VIM1 KP599644 MITC95” value worked out at 50 µM.
Still for that read-out and setting: the same measure for `CC(C)[C@H](C(=O)O)[C@H](Cc1ccccc1)c1nnn[nH]1` [Example 20, (2S,3S)-2-isopropyl-4-phenyl-3-(1H-tetrazol-5-yl)butanoic acid]: 69 µM; for `O=C(O)[C@@H](CCF)[C@H](Cc1ccccc1)c1nnn[nH]1` [Example 21, (2S,3S)-2-(2-fluoroethyl)-4-phenyl-3-(1H-tetrazol-5-yl)butanoic acid]: greater than 200 µM.
